Measurements as given in patent US20240398767A1, “INHIBITORS OF THE MTDH-SND1 PROTEIN COMPLEX FOR CANCER THERAPY” (The Trustees of Princeton University, priority 2021, published 2024).

Experiments:
PyMT tumor cells = experiment: Experimental lung metastasis, tail vein injection of PyMT tumor cells; assay type: in vivo, FVB mice; conditions: treatment from 3 days after injection, five weeks
Protocol: FIG. 5L, 2 k PyMT tumor cells were injected into FVB females via tail-vein. 3 days after injection, the mice were treated with vehicle or C26-A6.
FIG. 5M, 2 k PyMT tumor cells were injected into FVB females via tail-vein. 3 days after injection, the mice were treated with vehicle or C26-A6. 5 weeks later, lung metastatic nodules were counted. n=6 mice per group. Data represent mean±SEM.
To exclude the possibility that the lung metastasis reduction upon C26-A6 treatment was due to the smaller primary tumor, tail vein injection of PyMT tumor cells was performed to form experimental lung metastasis in FVB mice. Three days later, mice were divided randomly into two groups and treated with vehicle or C26-A6 respectively (FIG. 5L).

[1] = system: PyMT tumor immune microenvironment; experiment: Immune cell profiling of orthotopic PyMT tumors and lungs by flow cytometry; assay type: in vivo, FVB females; conditions: six weeks after treatment
From the text: FIGS. 35A-35C show C26-A6 combined with anti-PD-1 treatment reshapes the tumor immune microenvironment. For FIGS. 35A-35C, 100 k PyMT tumor cells were orthotopically injected into the mammary glands of FVB females. The mice were randomized and divided into three groups when primary tumors were established, followed by vehicle, C26-A6, or C26-A6+anti-PD-1 treatment. Six weeks after treatment, primary tumors and lung with metastatic lesions were collected for flow analysis with indicated antibodies. Anti-PD-1, 200 μg/mouse i.p. injection, twice per week for the first week and then once per week after that; C26-A6, 15 mg/kg i.v. injection, 5 days per week. n=6 mice per group. Data represent mean±SEM. Significance determined by one-way ANOVA analysis with Dunnett's test for multiple comparisons.
FIG. 35A, Percentages of CD11b^+F4/80^+, Ly6G^lowLy6C^high, Ly6G^highLy6C^low, CD3-NK1.1^+ in CD45^+ population and percentage of CD4^+FOXP3^+ in CD3^+ population are shown.
FIG. 35B, Percentages of GITR^+LAG-3^+ in CD8^+ population are shown.
Flow cytometry. Dissociated tumors or lungs were dissected and prepared as previously described^10. […]. Organoids were sequentially suspended with 0.25% trypsin-EDTA for 1.5 min, 5 mg/ml Dispase (Invitrogen), and 0.1 mg/ml DNase (Sigma) for 5 min, and 0.64% ammonium chloride for 5 min at 37° C. before filtration through a 40 μm nylon cell strainer. Tumor or lung cell suspensions were incubated with an antibody cocktail in FACS buffer (PBS+3% BSA) for 30 minutes at 4° C., washed, and resuspended in FACS buffer for flow analysis. Isotype controls were used to assess specificity of antibody labeling. […] Samples were analyzed with BD FACSDiva v6 software and data was processed with FlowJo v10 software. […]

[2] = system: PyMT tumors with MTDH KO or SND1 KD; experiment: PyMT tumor models with MTDH KO or SND1 KD in FVB mice; assay type: in vivo, FVB female mice; conditions: 6 weeks treatment
Protocol: FIG. 5G, 10 k of the cells of FIG. 5F were inoculated into FVB female mice and treated with or without C26-A6 after primary tumors reached to approximately 2 mm in diameter. 6 weeks after treatment, tumor size was determined. Vehicle, n=10 mice; C26-A6, n=10 mice.
FIG. 5H, 10 k of the cells of FIG. 5F were inoculated into FVB female mice and treated with or without C26-A6 after primary tumors reached to approximately 2 mm in diameter. 6 weeks after treatment, spontaneous lung metastasis was determined. The lung metastatic areas of the representative lungs were highlighted with red. Vehicle, n=10 mice; C26-A6, n=10 mice. Size bar, 5 mm.
FIG. 5J, 10 k of the cells of FIG. 5I were injected into FVB females and treated similarly as in FIGS. 5G, 5H. Tumor size was assessed. Vehicle, n=10 mice; C26-A6, n=10 mice.
FIG. 5K, 10 k of the cells of FIG. 5I were injected into FVB females and treated similarly as in FIGS. 5G, 5H. Lung metastasis was assessed. The lung metastatic areas of the representative lungs were highlighted with red. Vehicle, n=10 mice; C26-A6, n=10 mice. Size bar, 5 mm.
Next, to further validate that the anti-tumor effect of C26-A6 depends on its on-target effects by disrupting MTDH-SND1 complex, PyMT; UBC-Cre^ERT+/−;Mtdh^fl/fl tumor cells with Mtdh depletion or with endogenous Snd1 KD were employed for the similar assay as in FIG. 5-1a. […]

Structure (SMILES): COc1ccc(Cl)cc1S(=O)(=O)Nc1cccn2nc(C)nc12 [Analog C26-A6]
- lung metastasis (metastatic nodules) (PyMT tumor cells): significantly suppressed lung metastasis
- CD8+ T cell exhaustion (GITR+LAG-3+ in CD8+ population) [1]: elevated CD8^+ T cell exhaustion
- infiltration of Ly6GhighLy6Clow sub-population of MDSCs [1]: reduced
- infiltration of Ly6GlowLy6Chigh sub-population of MDSCs [1]: significantly enhanced
- populations of macrophages, NK cells and regulatory T cells [1]: not significantly altered
- tumor growth or metastasis [2]: did not further inhibit tumor growth or metastasis
